Source: BindingDB's records for doi:10.1074/jbc.M402433200 (University of Bristol, 2004)

What was measured:
L-lactate dehydrogenase = L-lactate dehydrogenase (Plasmodium falciparum (isolate CDC / Honduras), UniProt Q27743); assay: Lactate Dehydrogenase Inhibition Assay; settings: pH 7.5; 25 °C
Text: (§1) An LDH enzymatic assay developed for high throughput format was used. The dehydrogenase reaction was run in the lactate to pyruvate direction and coupled with the ability of diaphorase to reduce p-iodonitrotetrazolium violet using the NADH generated in the conversion of lactate to pyruvate. The progression of the coupling reaction was monitored as the increase of absorbance at 492 nm. Positive hits were subjected to additional analysis to determine IC50 values.

[1] = target: L-lactate dehydrogenase B chain (Homo sapiens, UniProt P07195); assay: Lactate Dehydrogenase Inhibition Assay
Chain of L-lactate dehydrogenase B chain (P07195 whole entry): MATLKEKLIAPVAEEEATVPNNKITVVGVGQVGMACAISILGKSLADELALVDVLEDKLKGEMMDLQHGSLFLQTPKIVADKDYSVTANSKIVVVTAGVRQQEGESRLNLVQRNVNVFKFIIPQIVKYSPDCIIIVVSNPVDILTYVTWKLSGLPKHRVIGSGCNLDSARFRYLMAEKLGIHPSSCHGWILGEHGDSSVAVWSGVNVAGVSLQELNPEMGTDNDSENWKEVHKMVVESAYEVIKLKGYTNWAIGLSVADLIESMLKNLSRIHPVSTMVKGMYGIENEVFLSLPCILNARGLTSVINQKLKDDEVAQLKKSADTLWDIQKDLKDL
Text: as §1

Chain of L-lactate dehydrogenase (Q27743 whole entry): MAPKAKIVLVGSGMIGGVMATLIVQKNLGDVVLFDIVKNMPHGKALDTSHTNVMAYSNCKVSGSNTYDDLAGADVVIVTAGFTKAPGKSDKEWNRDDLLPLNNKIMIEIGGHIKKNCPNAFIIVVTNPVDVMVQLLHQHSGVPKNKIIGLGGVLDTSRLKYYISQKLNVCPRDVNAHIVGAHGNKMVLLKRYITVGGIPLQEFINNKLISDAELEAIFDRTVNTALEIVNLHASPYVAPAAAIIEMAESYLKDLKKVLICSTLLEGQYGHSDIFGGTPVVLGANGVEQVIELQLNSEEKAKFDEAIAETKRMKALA

Row | SMILES | IC50 (L-lactate dehydrogenase) | IC50 [1] | Ki (L-lactate dehydrogenase)
1 | COc1nocc1C(=O)O [3-methoxy-1,2-oxazole-4-carboxylic acid] | > 100 µM | > 100 µM | –
2 | Cn1nc(O)c(C(=O)O)n1 [5-hydroxy-2-methyl-2H-1,2,3-triazole-4-carboxylic acid] | > 100 µM | > 100 µM | –
3 | O=C(O)c1cnn[nH]1 [1H-1,2,3-triazole-5-carboxylic acid] | 98 µM | > 200 µM | –
4 | O=C(O)c1nonc1NCCO [4-[(2-hydroxyethyl)amino]-1,2,5-oxadiazole-3-carboxylic acid] | > 200 µM | > 200 µM | –
5 | O=C(O)c1conc1O [3-hydroxy-1,2-oxazole-4-carboxylic acid] | 1.1 µM | 54 µM | 0.47 µM
6 | CCOC(=O)c1co[nH]c1=O [ethyl 3-hydroxy-1,2-oxazole-4-carboxylate] | > 100 µM | > 100 µM | –
7 | CCOC(=O)c1nonc1OCc1ccc(OC)cc1 [ethyl 4-[(4-methoxyphenyl)methoxy]-1,2,5-oxadiazole-3-carboxylate] | > 200 µM | > 200 µM | –
8 | Nc1nsnc1C(=O)O [4-amino-1,2,5-thiadiazole-3-carboxylic acid] | > 100 µM | > 100 µM | –
9 | O=C(O)c1nsnc1O [4-hydroxy-1,2,5-thiadiazole-3-carboxylic acid] | 0.14 µM | 10.3 µM | 0.29 µM
10 | O=C(OCc1ccc(Cl)c(Cl)c1)c1no[nH]c1=O [(3,4-dichlorophenyl)methyl 4-hydroxy-1,2,5-oxadiazole-3-carboxylate] | > 200 µM | > 200 µM | –
11 | O=C(O)Cc1no[nH]c1=O [2-(4-hydroxy-1,2,5-oxadiazol-3-yl)acetic acid] | > 200 µM | > 200 µM | –
12 | O=C(O)c1c(O)nnn1Cc1ccccc1 [1-benzyl-4-hydroxy-1H-1,2,3-triazole-5-carboxylic acid] | > 100 µM | > 100 µM | –
13 | CCOC(=O)c1c[nH]oc1=O [ethyl 5-hydroxy-1,2-oxazole-4-carboxylate] | > 100 µM | > 100 µM | –
14 | O=C(O)c1nonc1OC/C=C/c1ccccc1 [4-{[(2E)-3-phenylprop-2-en-1-yl]oxy}-1,2,5-oxadiazole-3-carboxylic acid] | > 200 µM | > 200 µM | –
15 | O=C(O)c1cnon1 [1,2,5-oxadiazole-3-carboxylic acid] | > 200 µM | > 200 µM | –

Now from value to compound:

Row | IC50 (L-lactate dehydrogenase) | IC50 [1] | Ki (L-lactate dehydrogenase) | SMILES
16 | > 100 µM | > 100 µM | – | Cc1o[nH]c(=O)c1C(=O)O [3-hydroxy-5-methyl-1,2-oxazole-4-carboxylic acid]
17 | 0.65 µM | 72.1 µM | 0.21 µM | O=C(O)c1nonc1O [4-hydroxy-1,2,5-oxadiazole-3-carboxylic acid]
18 | > 100 µM | > 100 µM | – | COc1nsnc1C(=O)O [4-methoxy-1,2,5-thiadiazole-3-carboxylic acid]
19 | 16 µM | > 100 µM | – | O=C(O)c1nocc1O [4-hydroxy-1,2-oxazole-3-carboxylic acid]
20 | 81 µM | > 100 µM | – | O=C(O)c1noc(C(=O)O)c1O [4-hydroxy-1,2-oxazole-3,5-dicarboxylic acid]
21 | > 200 µM | > 200 µM | – | Nc1nonc1C(=O)O [4-amino-1,2,5-oxadiazole-3-carboxylic acid]
22 | > 100 µM | > 100 µM | – | O=C(O)c1nn(Cc2ccccc2)[nH]c1=O [2-benzyl-5-hydroxy-2H-1,2,3-triazole-4-carboxylic acid]
23 | > 100 µM | > 100 µM | – | Cn1occ(C(=O)O)c1=O [2-methyl-3-oxo-2,3-dihydro-1,2-oxazole-4-carboxylic acid]
24 | > 100 µM | > 100 µM | – | Cn1nnc(O)c1C(=O)O [4-hydroxy-1-methyl-1H-1,2,3-triazole-5-carboxylic acid]
25 | > 100 µM | > 100 µM | – | CCOC(=O)c1nonc1O [ethyl 4-hydroxy-1,2,5-oxadiazole-3-carboxylate]
26 | > 100 µM | > 100 µM | – | COC(=O)c1c(C)[nH]oc1=O [methyl 5-hydroxy-3-methyl-1,2-oxazole-4-carboxylate]
